Laboratory results published in patent US20110039847A1, “AMIDE DERIVATIVES AS SIRTUIN MODULATORS” (Sirtris Pharmaceuticals, Inc, priority 2007, published 2011).

Target: T1, SIRT1 (Homo sapiens, UniProt Q96EB6)
T1 sequence (Q96EB6 1-747): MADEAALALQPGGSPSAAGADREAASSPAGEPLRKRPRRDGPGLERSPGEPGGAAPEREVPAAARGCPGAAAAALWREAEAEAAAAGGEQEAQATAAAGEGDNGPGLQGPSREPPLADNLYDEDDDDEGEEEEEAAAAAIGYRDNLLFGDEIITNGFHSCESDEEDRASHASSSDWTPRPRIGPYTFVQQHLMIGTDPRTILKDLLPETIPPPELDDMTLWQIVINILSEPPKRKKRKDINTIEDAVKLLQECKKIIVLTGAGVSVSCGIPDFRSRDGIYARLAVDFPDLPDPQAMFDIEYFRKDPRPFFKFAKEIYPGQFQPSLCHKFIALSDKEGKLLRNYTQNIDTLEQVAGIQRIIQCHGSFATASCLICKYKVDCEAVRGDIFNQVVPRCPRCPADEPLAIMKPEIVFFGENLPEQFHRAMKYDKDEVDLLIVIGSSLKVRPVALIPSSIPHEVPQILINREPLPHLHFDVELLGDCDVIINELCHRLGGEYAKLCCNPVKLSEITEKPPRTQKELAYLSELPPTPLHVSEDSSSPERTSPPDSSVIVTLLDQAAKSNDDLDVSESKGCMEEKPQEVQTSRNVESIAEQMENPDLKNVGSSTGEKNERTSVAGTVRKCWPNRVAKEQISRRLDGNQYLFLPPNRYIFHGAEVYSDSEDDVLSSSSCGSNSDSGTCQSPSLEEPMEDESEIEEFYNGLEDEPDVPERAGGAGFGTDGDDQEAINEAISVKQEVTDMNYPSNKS
Assay: Mass spectrometry based SIRT1 deacetylation (activation) assay
Format: biochemical
Conditions: 0.5 μM peptide substrate, 120 μM βNAD+, 10 nM SIRT1, 25 min at 25° C.; for Emax: 25 min, read-out: % Fold Act. (percent maximum fold activation)
From the text: A mass spectrometry based assay was used to identify modulators of SIRT1 activity. The mass spectrometry based assay utilizes a peptide having 20 amino acid residues as follows: Ac-EE-K(biotin)-GQSTSSHSK(Ac)NleSTEG-K(5TMR)-EE-NH2 (SEQ ID NO: 1) wherein K(Ac) is an acetylated lysine residue and Nle is a norleucine. The peptide is labeled with the fluorophore 5TMR (excitation 540 nm/emission 580 nm) at the C-terminus. The sequence of the peptide substrate is based on p53 with several modifications. In addition, the methionine residue naturally present in the sequence was replaced with the norleucine because the methionine may be susceptible to oxidation during synthesis and purification.
The mass spectrometry assay is conducted as follows: 0.5 μM peptide substrate and 120 μM βNAD^+ is incubated with 10 nM SIRT1 for 25 minutes at 25° C. in a reaction buffer (50 mM Tris-acetate pH 8, 137 mM NaCl, 2.7 mM KCl, 1 mM MgCl2, 5 mM DTT, 0.05% BSA). Test compounds may be added to the reaction as described above. […] After the 25 minute incubation with SIRT1, 10 μL of 10% formic acid is added to stop the reaction. Reactions are sealed and frozen for later mass spec analysis. Determination of the mass of the substrate peptide allows for precise determination of the degree of acetylation (i.e. starting material) as compared to deacetylated peptide (product).
A control for inhibition of sirtuin activity is conducted by adding 1 μL of 500 mM nicotinamide as a negative control at the start of the reaction (e.g., permits determination of maximum sirtuin inhibition). A control for activation of sirtuin activity is conducted using 10 nM of sirtuin protein, with 1 μL of DMSO in place of compound, to determine the amount of deacetylation of the substrate at a given timepoint within the linear range of the assay. This timepoint is the same as that used for test compounds and, within the linear range, the endpoint represents a change in velocity.
For the above assay, SIRT1 protein was expressed and purified as follows. […] The protein was expressed by induction with 1 mM IPTG as an N-terminal His-tag fusion protein at 18° C. overnight and harvested at 30,000×g. Cells were lysed with lysozyme in lysis buffer (50 mM Tris-HCl, 2 mM Tris[2-carboxyethyl]phosphine (TCEP), 10 μM ZnCl2, 200 mM NaCl) and further treated with sonication for 10 min for complete lysis. The protein was purified over a Ni-NTA column (Amersham) and fractions containing pure protein were pooled, concentrated and run over a sizing column (Sephadex S200 26/60 global). The peak containing soluble protein was collected and run on an Ion-exchange column (MonoQ). Gradient elution (200 mM-500 mM NaCl) yielded pure protein. This protein was concentrated and dialyzed against dialysis buffer (20 mM Tris-HCl, 2 mM TCEP) overnight. The protein was aliquoted and frozen at −80° C. until further use.

| Structure (SMILES) | EC1.5 | Emax [%] |
| --- | --- | --- |
| CCc1ccccc1NC(=O)c1cc(NCCN(C)C)nc(-c2ccccc2)n1 [Compound 1] | C (EC1.5>10 uM) | 150 to 300 |
| CN(C)CCNc1cc(C(=O)Nc2ccccc2-c2ccccc2)nc(-c2ccccc2)n1 [Compound 2] | C (EC1.5>10 uM) | < 150 |
| CN(C)CCNc1cc(C(=O)Nc2ccccc2C(N)=O)nc(-c2ccccc2)n1 [Compound 3] | B (EC1.5>1 and ≦10 uM) | ≥ 300 |
| CN(C)CCNc1cc(C(=O)Nc2ccccc2C#N)nc(-c2ccccc2)n1 [Compound 4] | B (EC1.5>1 and ≦10 uM) | 150 to 300 |
| COC(=O)c1ccccc1NC(=O)c1cc(NCCN(C)C)nc(-c2ccccc2)n1 [Compound 5] | A (EC1.5≦1 uM) | ≥ 300 |
| CN(C)CCNc1cc(C(=O)Nc2ccccc2)nc(-c2ccccc2)n1 [Compound 6] | C (EC1.5>10 uM) | 150 to 300 |
| Cc1csc(-c2ccccc2NC(=O)c2cc(NCCN(C)C)nc(-c3ccccc3)n2)n1 [Compound 7] | B (EC1.5>1 and ≦10 uM) | ≥ 300 |
| CN(C)CCNc1cc(C(=O)Nc2ccccc2-c2nccs2)nc(-c2ccccc2)n1 [Compound 8] | A (EC1.5≦1 uM) | ≥ 300 |
| CN(C)CCNc1cc(C(=O)Nc2ccccc2-c2ccncc2)nc(-c2ccccc2)n1 [Compound 10] | B (EC1.5>1 and ≦10 uM) | 150 to 300 |
| CN(C)CCNc1cc(C(=O)Nc2ccccc2-c2cccnc2)nc(-c2ccccc2)n1 [Compound 11] | B (EC1.5>1 and ≦10 uM) | 150 to 300 |
| CN(C)CCNc1cc(C(=O)Nc2ccccc2-c2csc(-c3ccccc3)n2)nc(-c2ccccc2)n1 [Compound 12] | B (EC1.5>1 and ≦10 uM) | 150 to 300 |
| CN(C)CCNc1cc(C(=O)Nc2ccccc2-c2ncc(-c3ccccc3)s2)nc(-c2ccccc2)n1 [Compound 13] | A (EC1.5≦1 uM) | 150 to 300 |
| CN(C)CCNc1cc(C(=O)Nc2ccccc2-c2nc(-c3ccccc3)cs2)nc(-c2ccccc2)n1 [Compound 14] | B (EC1.5>1 and ≦10 uM) | 150 to 300 |
| CN(C)CCNc1cc(C(=O)Nc2ccccc2-c2c[nH]c(-c3ccccc3)n2)nc(-c2ccccc2)n1 [Compound 15] | A (EC1.5≦1 uM) | ≥ 300 |
| CN(C)CCNc1cc(C(=O)Nc2ccccc2-c2ccco2)nc(-c2ccccc2)n1 [Compound 16] | B (EC1.5>1 and ≦10 uM) | ≥ 300 |
| O=C(Nc1ccccc1-c1ncc(-c2ccccc2)s1)c1cc(NCCN2CCCCC2)nc(-c2ccccc2)n1 [Compound 17] | A (EC1.5≦1 uM) | 150 to 300 |
| O=C(Nc1ccccc1-c1ncc(-c2ccccc2)s1)c1cc(N2CCNCC2)nc(-c2ccccc2)n1 [Compound 18] | A (EC1.5≦1 uM) | 150 to 300 |
| O=C(Nc1ccccc1-c1ncc(-c2ccccc2)s1)c1cc(NCCN2CCCC2)nc(-c2ccccc2)n1 [Compound 19] | A (EC1.5≦1 uM) | 150 to 300 |
| Cc1nnc(-c2ccccc2NC(=O)c2cc(NCCN(C)C)nc(-c3ccccc3)n2)o1 [Compound 20] | B (EC1.5>1 and ≦10 uM) | ≥ 300 |
| Cc1nnc(-c2ccccc2NC(=O)c2cc(NCCN(C)C)nc(-c3ccccc3)n2)s1 [Compound 21] | A (EC1.5≦1 uM) | 150 to 300 |
| Cc1cnc(-c2ccccc2NC(=O)c2cc(NCCN(C)C)nc(-c3ccccc3)n2)s1 [Compound 22] | B (EC1.5>1 and ≦10 uM) | ≥ 300 |

| Structure (SMILES) | EC1.5 | Emax [%] |
| --- | --- | --- |
| Cc1cnc(-c2ccccc2NC(=O)c2cc(NCCN(C)C)nc(-c3ccccc3)n2)o1 [Compound 23] | B (EC1.5>1 and ≦10 uM) | ≥ 300 |
| CN(C)CCNc1cc(C(=O)Nc2ccccc2-n2cc(-c3ccccc3)cn2)nc(-c2ccccc2)n1 [Compound 24] | B (EC1.5>1 and ≦10 uM) | 150 to 300 |
| CN(C)CCNc1cc(C(=O)Nc2ccccc2-c2nnc(-c3ccccc3)s2)nc(-c2ccccc2)n1 [Compound 25] | A (EC1.5≦1 uM) | 150 to 300 |
| CN(C)CCNc1cc(C(=O)Nc2ccccc2-c2nncs2)nc(-c2ccccc2)n1 [Compound 26] | A (EC1.5≦1 uM) | ≥ 300 |
| CN(C)CCN(C)c1cc(C(=O)Nc2ccccc2-c2nncs2)nc(-c2ccccc2)n1 [Compound 27] | A (EC1.5≦1 uM) | ≥ 300 |
| CN(C)CCNc1cc(C(=O)Nc2ccccc2-c2ccccn2)nc(-c2ccccc2)n1 [Compound 28] | B (EC1.5>1 and ≦10 uM) | ≥ 300 |
| CN(C)CCNc1cc(C(=O)Nc2ccccc2-c2ncc(C(C)(C)C)s2)nc(-c2ccccc2)c1 [Compound 29] | B (EC1.5>1 and ≦10 uM) | ≥ 300 |
| CN(C)CCNc1cc(C(=O)Nc2ccccc2-c2ncc(-c3ccccc3)o2)nc(-c2ccccc2)c1 [Compound 30] | A (EC1.5≦1 uM) | ≥ 300 |
| CN(C)CCNc1cc(C(=O)Nc2ccccc2-c2ncc(C(C)(C)C)o2)nc(-c2ccccc2)c1 [Compound 31] | B (EC1.5>1 and ≦10 uM) | ≥ 300 |
| CNCCN(C)c1cc(C(=O)Nc2ccccc2-c2nnc(-c3ccccc3)s2)nc(-c2ccccc2)n1 [Compound 32] | A (EC1.5≦1 uM) | ≥ 300 |
| CN(C)CCNc1cc(C(=O)Nc2ccccc2-c2nnc(-c3ccccc3)s2)nc(-c2ccccc2)c1 [Compound 33] | A (EC1.5≦1 uM) | ≥ 300 |
| CCN(CCN(C)C)c1cc(C(=O)Nc2ccccc2-c2ncc(-c3ccccc3)o2)nc(-c2ccccc2)c1 [Compound 34] | A (EC1.5≦1 uM) | ≥ 300 |
| CN(C)CCN(C)c1cc(C(=O)Nc2ccccc2-c2nnc(-c3ccccc3)s2)nc(-c2ccccc2)c1 [Compound 35] | A (EC1.5≦1 uM) | 150 to 300 |
| CCN(CCN(C)C)c1cc(C(=O)Nc2ccccc2-c2nnc(-c3ccccc3)s2)nc(-c2ccccc2)n1 [Compound 36] | A (EC1.5≦1 uM) | 150 to 300 |
| CN(C)CCNc1cc(C(=O)Nc2ccccc2-c2ncc(C(C)(C)C)s2)nc(-c2ccccc2)n1 [Compound 37] | B (EC1.5>1 and ≦10 uM) | 150 to 300 |
| CN(C)CCNc1cc(C(=O)Nc2ccccc2-c2ncc(-c3ccccc3)o2)nc(-c2ccccc2)n1 [Compound 38] | A (EC1.5≦1 uM) | 150 to 300 |
| CN(C)CCNc1cc(C(=O)Nc2ccccc2-c2ncc(C(C)(C)C)o2)nc(-c2ccccc2)n1 [Compound 39] | B (EC1.5>1 and ≦10 uM) | 150 to 300 |
| CNCCN(C)c1cc(C(=O)Nc2ccccc2-c2nncs2)nc(-c2ccccc2)n1 [Compound 40] | A (EC1.5≦1 uM) | ≥ 300 |
| CCN(CCN(C)C)c1cc(C(=O)Nc2ccccc2-c2nncs2)nc(-c2ccccc2)n1 [Compound 41] | A (EC1.5≦1 uM) | ≥ 300 |
| CCN(CCN(C)C)c1cc(C(=O)Nc2ccccc2-c2ncc(C(C)(C)C)s2)nc(-c2ccccc2)c1 [Compound 42] | A (EC1.5≦1 uM) | 150 to 300 |
